# Measurements published in PubChem BioAssay (NCI).
#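 Cells were grown in 96-well plates and exposed to each compound for 48 hours at five concentrations; endpoints were interpolated linearly between bracketing concentrations, or set to the highest concentration if not reached. GI50 marks 50% less growth. TGI denotes the concentration required for complete inhibition of growth.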
# Assays:
# Assay in all cases: inhibition of tumour cell growth, NCI panel, 48 h
# UO-31 renal = tested on: UO-31 renal
# NCI/ADR-RES ovarian = tested on: NCI/ADR-RES ovarian
# U251 CNS = tested on: U251 CNS
# NCI-H460 lung = tested on: NCI-H460 lung
# SW-620 colon = tested on: SW-620 colon
# CCRF-CEM leukemia = tested on: CCRF-CEM leukemia
# MOLT-4 leukemia = tested on: MOLT-4 leukemia
# MALME-3M melanoma = tested on: MALME-3M melanoma
# K-562 leukemia = tested on: K-562 leukemia
# MDA-MB-435 = tested on: MDA-MB-435
# HCC-2998 colon = tested on: HCC-2998 colon
# SN12C renal = tested on: SN12C renal
# SK-MEL-5 melanoma = tested on: SK-MEL-5 melanoma
# HCT-15 colon = tested on: HCT-15 colon
# OVCAR-8 ovarian = tested on: OVCAR-8 ovarian
# SNB-19 CNS = tested on: SNB-19 CNS
# RXF 393 renal = tested on: RXF 393 renal
# OVCAR-5 ovarian = tested on: OVCAR-5 ovarian
# T-47D breast = tested on: T-47D breast
# SF-268 CNS = tested on: SF-268 CNS
# RPMI-8226 leukemia = tested on: RPMI-8226 leukemia
# SF-539 CNS = tested on: SF-539 CNS
# CAKI-1 renal = tested on: CAKI-1 renal
# A498 renal = tested on: A498 renal
# UACC-62 melanoma = tested on: UACC-62 melanoma
# SK-MEL-28 melanoma = tested on: SK-MEL-28 melanoma
# NCI-H226 lung = tested on: NCI-H226 lung
# HOP-92 NSCLC = tested on: HOP-92 NSCLC
# BT-549 breast = tested on: BT-549 breast
# 786-0 renal = tested on: 786-0 renal
# EKVX NSCLC = tested on: EKVX NSCLC
# ACHN renal = tested on: ACHN renal
# SNB-75 CNS = tested on: SNB-75 CNS
# MDA-MB-231 breast = tested on: MDA-MB-231 breast
# UACC-257 melanoma = tested on: UACC-257 melanoma
# HT29 colon = tested on: HT29 colon
# HL-60(TB) leukemia = tested on: HL-60(TB) leukemia
# COLO 205 colon = tested on: COLO 205 colon
# A549 NSCLC = tested on: A549 NSCLC
# HCT-116 colon = tested on: HCT-116 colon
# SK-MEL-2 melanoma = tested on: SK-MEL-2 melanoma
# SK-OV-3 ovarian = tested on: SK-OV-3 ovarian
# HOP-62 NSCLC = tested on: HOP-62 NSCLC
# SF-295 CNS = tested on: SF-295 CNS
# TK-10 renal = tested on: TK-10 renal
# OVCAR-3 ovarian = tested on: OVCAR-3 ovarian
# SR leukemia = tested on: SR leukemia
# LOX IMVI melanoma = tested on: LOX IMVI melanoma
# M14 melanoma = tested on: M14 melanoma
# PC-3 prostate = tested on: PC-3 prostate
# IGROV1 ovarian = tested on: IGROV1 ovarian
# NCI-H23 lung = tested on: NCI-H23 lung
# OVCAR-4 ovarian = tested on: OVCAR-4 ovarian
# DU-145 prostate = tested on: DU-145 prostate
# MCF7 breast = tested on: MCF7 breast
# HS 578T breast = tested on: HS 578T breast
# NCI-H522 lung = tested on: NCI-H522 lung
# KM12 colon = tested on: KM12 colon
# MDA-MB-468 breast = tested on: MDA-MB-468 breast
compound,measurement,setting,value
CCOC(=O)c1ccc(NC(=O)CSC(CC(=O)c2sc(Nc3ccccn3)nc2C)c2ccccc2F)cc1 (stereo not drawn),GI50,UO-31 renal,3.19 µM
same,TGI,UO-31 renal,> 100 µM
same,GI50,NCI/ADR-RES ovarian,24.1 µM
same,TGI,NCI/ADR-RES ovarian,> 100 µM
same,GI50,U251 CNS,47.8 µM
same,TGI,U251 CNS,> 100 µM
same,GI50,NCI-H460 lung,31.2 µM
same,TGI,NCI-H460 lung,> 100 µM
same,GI50,SW-620 colon,75.3 µM
same,TGI,SW-620 colon,> 100 µM
same,GI50,CCRF-CEM leukemia,18.6 µM
same,TGI,CCRF-CEM leukemia,> 100 µM
same,GI50,MOLT-4 leukemia,32.2 µM
same,TGI,MOLT-4 leukemia,> 100 µM
same,GI50,MALME-3M melanoma,25.4 µM
same,TGI,MALME-3M melanoma,> 100 µM
same,GI50,K-562 leukemia,30.4 µM
same,TGI,K-562 leukemia,> 100 µM
same,GI50,MDA-MB-435,26.3 µM
same,TGI,MDA-MB-435,> 100 µM
same,GI50,HCC-2998 colon,23.1 µM
same,TGI,HCC-2998 colon,> 100 µM
same,GI50,SN12C renal,28 µM
same,TGI,SN12C renal,> 100 µM
same,GI50,SK-MEL-5 melanoma,18.6 µM
same,TGI,SK-MEL-5 melanoma,82 µM
same,GI50,HCT-15 colon,25.8 µM
same,TGI,HCT-15 colon,> 100 µM
same,GI50,OVCAR-8 ovarian,53.6 µM
same,TGI,OVCAR-8 ovarian,> 100 µM
same,GI50,SNB-19 CNS,36.9 µM
same,TGI,SNB-19 CNS,> 100 µM
same,GI50,RXF 393 renal,2.59 µM
same,TGI,RXF 393 renal,23.5 µM
same,GI50,OVCAR-5 ovarian,74.4 µM
same,TGI,OVCAR-5 ovarian,> 100 µM
same,GI50,T-47D breast,18 µM
same,TGI,T-47D breast,> 100 µM
same,GI50,SF-268 CNS,43.1 µM
same,TGI,SF-268 CNS,> 100 µM
same,GI50,RPMI-8226 leukemia,8.29 µM
same,TGI,RPMI-8226 leukemia,> 100 µM
same,GI50,SF-539 CNS,32.5 µM
same,TGI,SF-539 CNS,> 100 µM
same,GI50,CAKI-1 renal,11.5 µM
same,TGI,CAKI-1 renal,> 100 µM
same,GI50,A498 renal,69.2 µM
same,TGI,A498 renal,> 100 µM
same,GI50,UACC-62 melanoma,16.1 µM
same,TGI,UACC-62 melanoma,> 100 µM
same,GI50,SK-MEL-28 melanoma,38.7 µM
same,TGI,SK-MEL-28 melanoma,> 100 µM
same,GI50,NCI-H226 lung,2.52 µM
same,TGI,NCI-H226 lung,85.9 µM
same,GI50,HOP-92 NSCLC,12.5 µM
same,TGI,HOP-92 NSCLC,> 100 µM
same,GI50,BT-549 breast,14.7 µM
same,TGI,BT-549 breast,81.5 µM
same,GI50,786-0 renal,24.8 µM
same,TGI,786-0 renal,> 100 µM
same,GI50,EKVX NSCLC,19 µM
same,TGI,EKVX NSCLC,> 100 µM
same,GI50,ACHN renal,45.6 µM
same,TGI,ACHN renal,> 100 µM
same,GI50,SNB-75 CNS,3.59 µM
same,TGI,SNB-75 CNS,48.8 µM
same,GI50,MDA-MB-231 breast,19.3 µM
same,TGI,MDA-MB-231 breast,> 100 µM
same,GI50,UACC-257 melanoma,38.4 µM
same,TGI,UACC-257 melanoma,> 100 µM
same,GI50,HT29 colon,58.3 µM
same,TGI,HT29 colon,> 100 µM
same,GI50,HL-60(TB) leukemia,21.4 µM
same,TGI,HL-60(TB) leukemia,> 100 µM
same,GI50,COLO 205 colon,> 100 µM
same,TGI,COLO 205 colon,> 100 µM
same,GI50,A549 NSCLC,75.7 µM
same,TGI,A549 NSCLC,> 100 µM
same,GI50,HCT-116 colon,23 µM
same,TGI,HCT-116 colon,> 100 µM
same,GI50,SK-MEL-2 melanoma,44.9 µM
same,TGI,SK-MEL-2 melanoma,> 100 µM
same,GI50,SK-OV-3 ovarian,26 µM
same,TGI,SK-OV-3 ovarian,> 100 µM
same,GI50,HOP-62 NSCLC,37.5 µM
same,TGI,HOP-62 NSCLC,> 100 µM
same,GI50,SF-295 CNS,32.2 µM
same,TGI,SF-295 CNS,> 100 µM
same,GI50,TK-10 renal,82.3 µM
same,TGI,TK-10 renal,> 100 µM
same,GI50,OVCAR-3 ovarian,31.7 µM
same,TGI,OVCAR-3 ovarian,> 100 µM
same,GI50,SR leukemia,24.1 µM
same,TGI,SR leukemia,> 100 µM
same,GI50,LOX IMVI melanoma,0.312 µM
same,TGI,LOX IMVI melanoma,> 100 µM
same,GI50,M14 melanoma,19.4 µM
same,TGI,M14 melanoma,> 100 µM
same,GI50,PC-3 prostate,23.8 µM
same,TGI,PC-3 prostate,> 100 µM
same,GI50,IGROV1 ovarian,12.1 µM
same,TGI,IGROV1 ovarian,83.3 µM
same,GI50,NCI-H23 lung,22.7 µM
same,TGI,NCI-H23 lung,> 100 µM
same,GI50,OVCAR-4 ovarian,66.1 µM
same,TGI,OVCAR-4 ovarian,> 100 µM
same,GI50,DU-145 prostate,67.2 µM
same,TGI,DU-145 prostate,> 100 µM
same,GI50,MCF7 breast,15.4 µM
same,TGI,MCF7 breast,> 100 µM
same,GI50,HS 578T breast,14.9 µM
same,TGI,HS 578T breast,94.8 µM
same,GI50,NCI-H522 lung,21.6 µM
same,TGI,NCI-H522 lung,> 100 µM
same,GI50,KM12 colon,55.6 µM
same,TGI,KM12 colon,> 100 µM
same,GI50,MDA-MB-468 breast,4.24 µM
same,TGI,MDA-MB-468 breast,44.3 µM
